# Assay results from patent US7932261B2, “Macrocycle derivatives useful as inhibitors of β-secretase (BACE)” (Janssen Pharmaceutica NV, priority 2006, dated 2011).
# Read-outs that look alike come from different tables or passages of the source.
# How the values were obtained:
# Format in all cases: biochemical
# [1] = target: human BACE-1 (Homo sapiens, UniProt P56817); test: in vitro BACE Assay run by CEREP (Example 15); settings: for inhibition at 0.3 µM / % Inhibition 0.3 μM: 0.3 μM compound; for inhibition at 1 µM: 1 μM compound
# Protocol: More specifically the assay, run at 50 μL in a 96 well plate, evaluated the effect of test compound on the activity of the human BACE-1 quantified by measuring the formation of Mca-S-E-V—N-L-NH2 from Mca-S-E-V—N-L-D-A-E-F—R—K(Dnp)-R—R—NH2, using a recombinant enzyme.
# The test compound, reference compound or water (control) was added to a buffer containing 0.09 M sodium acetate (pH 4.5) and 0.25 μg BACE-1. Compound interference with the fluorimetric detection method due to autofluorescence was then checked by measurements at the wavelengths defined to evaluate the enzyme activity. […] For control basal measurement, the substrate was omitted from the reaction mixture. […] The standard inhibitory reference compound was OM99-2, which was tested in each experiment at several concentrations to obtain an inhibition curve from which its IC50 value was calculated.
# [2] = target: T1, β-secretase (BACE) (Homo sapiens, UniProt P56817); test: in vitro BACE FS1 % Inhibition Assay (Example 13); settings: FS1 substrate, pH 5; for inhibition at 0.3 µM: read-out: % Inhibition (Example 13) @ 0.3 μM; for inhibition at 0.3 µM / % Inhibition (Example 13) @ 0.3 μM: 0.3 μM compound; for inhibition at 1 µM: read-out: % Inhibition (Example 13) @ 1 μM; for inhibition at 1 µM / % Inhibition (Example 13) @ 1 μM: 1 μM compound; for inhibition at 3 µM: read-out: % Inhibition (Example 13) @ 3 μM; for inhibition at 3 µM / % Inhibition (Example 13) @ 3 μM: 3 μM compound
# T1 construct: purchased Panvera
# Protocol: (§1) The following assay buffers were prepared and used in this assay: (1) enzyme assay buffer (0.05 M sodium acetate, pH5, 0.1% PEG8000 (w/v)), (2) substrate assay buffer (0.05 M sodium acetate, pH5), and (3) compound vehicle (30% DMSO in 50 mM HEPES, pH 7.4).
# (§2) The FS1-substrate stock solution was prepared in DMSO as a 10 mg/mL solution. The FS1-substrate working solution was prepared by diluting the 10 mg/mL stock solution with substrate assay buffer to a final concentration of 300 μg/mL. The α-secretase (BACE) working solution was prepared by diluting a 0.83 mg/mL BACE stock solution with enzyme assay buffer to a final concentration of 4 μg/mL.
# Test compounds were dissolved in DMSO to 10 mM.
# (§3) The screening procedure for this assay was as follows: 15 μL of BACE working solution was pipetted into each well of a 96-well plate. To each well was then pipetted 2 μL of test compound at the selected concentration. Test compound and BACE were then mixed with a pipettor and incubated for 20 min at room temperature. To each well was then added 10 µL of the FS1 substrate working solution. The plates were then incubated for 1 hour at room temperature.
# The procedure for the blank (negative control) was as follows. 15 μL of assay buffer was pipetted into each well to be used as a blank control. To each well was then added 2 μL of vehicle and 10 μL of FS1-substrate working solution. The plates were then incubated for 1 hour at room temperature.
# (§4) The procedure for the positive control was as follows: 15 μL of BACE working solution was pipetted into each well to be used as a positive control. To each well was then pipetted 2 μL of vehicle. Vehicle and BACE were then mixed with a pipettor and incubated for 20 min at room temperature. To each well was then added 10 μL of the FS1 substrate working solution. The plates were then incubated for 1 hour at room temperature.
# For test compounds, % inhibition was determined at each concentration as follows: […]
# [3] = target: T1, β-secretase (BACE); test: in vitro BACE Assay, Ki (Example 14)
# Protocol: as §1
# as §2, with “β-secretase” for “α-secretase”
# Test compounds were dissolved in DMSO at 10 mM.
# as §3, with “The” for “The screening”, “μL” for “µL”, “solution.” for “solution. The plates were then incubated for 1 hour at room temperature.”
# as §4, with “solution.” for “solution. The plates were then incubated for 1 hour at room temperature.”
# For test compounds, Ki inhibition was determined as follows: For each compound concentration and positive control, rate of cleavage of substrate (Vi, where i=compound concentration in μM) was determined as Δ Fluorescence/Δ time (min). Cleavage rates (Vi) were plotted as a function of inhibitor concentration in μM [I]. The Ki was then determined by fitting the following equation to the graph of [I] vs. Vi Y=aVmax/(50+24*(1+X/Ki)),
# [4] = recombinant enzyme, pH 4.5, 60 min at 37° C.
# [5] = recombinant enzyme, pH 4.5, 60 min at 37° C., read-out: IC50
# [6] = read-out: (Example 14) Ki, FS1 substrate 50 μM, Km 24 μM, pH 5
# T1 sequence (P56817 46-501): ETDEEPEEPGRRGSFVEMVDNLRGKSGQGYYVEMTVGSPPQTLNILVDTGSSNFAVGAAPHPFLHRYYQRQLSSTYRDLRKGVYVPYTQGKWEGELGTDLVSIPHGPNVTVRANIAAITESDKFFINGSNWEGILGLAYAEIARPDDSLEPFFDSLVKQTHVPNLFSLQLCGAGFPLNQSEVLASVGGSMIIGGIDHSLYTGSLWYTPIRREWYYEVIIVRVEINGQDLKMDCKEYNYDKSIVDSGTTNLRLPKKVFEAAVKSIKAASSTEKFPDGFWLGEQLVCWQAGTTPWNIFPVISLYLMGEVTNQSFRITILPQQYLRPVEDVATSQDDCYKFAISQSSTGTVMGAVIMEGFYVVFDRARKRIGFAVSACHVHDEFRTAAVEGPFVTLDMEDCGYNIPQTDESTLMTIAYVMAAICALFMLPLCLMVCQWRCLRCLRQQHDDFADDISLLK
# Chain of human BACE-1 (P56817 46-501): as above
compound,measurement,setting,value
NC1=Nc2ccc3cc2CN1[C@H](C1CCCCC1)CCC(=O)N([C@H]1CC[C@@H](O)CC1)CCc1cccc(c1)O3 [Compound 35],inhibition at 0.3 µM,[1]; [4],93%
same,IC50,[1]; [5],83 nM
CC(C)[C@@H]1CCC(=O)N([C@H]2CC[C@H](C(=O)O)CC2)CCc2cccc(c2)Oc2ccc3c(c2)CN1C(N)=N3 [Compound 24],inhibition at 0.3 µM,[2],27%
same,inhibition at 1 µM,[2],43%
same,inhibition at 3 µM,[2],77%
same,Ki,[3],420 nM
Nc1nc2ccc3cc2cc1C(C1CCCCC1)C/C=C/C(=O)N(C1CCCCC1)CCc1cccc(c1)O3 (stereo not drawn) [Compound 39],inhibition at 1 µM,[1]; [4],53%
same,IC50,[1]; [5],810 nM
COc1cc2c3cc1Oc1cccc(c1)CCN(C1CCCCC1)C(=O)CC[C@@H](C1CCCCC1)N(C3)C(N)=N2 [Compound 18],inhibition at 0.3 µM,[2],95%
same,inhibition at 1 µM,[2],107%
same,inhibition at 3 µM,[2],115%
CC(C)[C@@H]1CCC(=O)N(C2CCCCC2)C2CCc3ccc(cc32)Oc2ccc3c(c2)CN1C(N)=N3 (stereo partly drawn) [Compound 36],% Inhibition 0.3 μM,[1]; [4],74%
same,IC50,[1]; [5],150 nM
NC1=Nc2cnc3cc2CN1[C@H](C1CCCCC1)CCC(=O)N(CC1CC1)CCc1cccc(c1)O3 [Compound 38],inhibition at 0.3 µM,[1]; [4],97%
same,IC50,[1]; [5],67 nM
NC1=Nc2ccc3cc2CN1[C@H](C1CCOCC1)CCC(=O)NCCc1cccc(c1)O3 [Compound 21],% Inhibition (Example 13) @ 0.3 μM,[2],54%
same,% Inhibition (Example 13) @ 1 μM,[2],88%
same,% Inhibition (Example 13) @ 3 μM,[2],110%
same,Ki,[3]; [6],100 nM
CC(C)C1CCC(=O)N(C2CCC(O)CC2)CCc2cccc(c2)Oc2ccc3c(c2)CN1C(N)=N3 (stereo not drawn) [Compound 26],% Inhibition (Example 13) @ 0.3 μM,[2],−8%
same,% Inhibition (Example 13) @ 1 μM,[2],23%
same,% Inhibition (Example 13) @ 3 μM,[2],58%
NC1=Nc2ccc3cc2CN1[C@H](C1CCCCC1)CCC(=O)N([C@H]1CC[C@@H](C(=O)O)CC1)CCc1cccc(c1)O3 [Compound 29],inhibition at 0.3 µM,[2],120%
same,inhibition at 1 µM,[2],116%
same,inhibition at 3 µM,[2],125%
CC(C)[C@@H]1CCC(=O)N([C@H]2CC[C@@H](C(=O)O)CC2)CCc2cccc(c2)Oc2ccc3c(c2)CN1C(N)=N3 [Compound 23],inhibition at 0.3 µM,[2],106%
same,inhibition at 1 µM,[2],108%
same,inhibition at 3 µM,[2],114%
same,Ki,[3],13 nM
CC(C)[C@@H]1CCC(=O)N(C2CCCCC2)CCOc2cccc(c2)Oc2ccc3c(c2)CN1C(N)=N3 [Compound 27],inhibition at 0.3 µM,[2],106%
same,inhibition at 1 µM,[2],117%
same,inhibition at 3 µM,[2],117%
same,Ki,[3],11 nM
NC1=Nc2ccc3cc2CN1[C@@H](C1CCCCC1)CNC(=O)CCc1cccc(c1)O3 [Compound 16],% Inhibition (Example 13) @ 0.3 μM,[2],39%
same,% Inhibition (Example 13) @ 1 μM,[2],37%
same,% Inhibition (Example 13) @ 3 μM,[2],61%
CC(C)[C@@H]1CC(=O)N(C2CCCCC2)CCCc2cccc(c2)Oc2ccc3c(c2)CN1C(N)=N3 [Compound 3],% Inhibition (Example 13) @ 0.3 μM,[2],9%
same,% Inhibition (Example 13) @ 1 μM,[2],7%
same,% Inhibition (Example 13) @ 3 μM,[2],29%
NC1=Nc2ccc3cc2CN1CCN(C(=O)C1CCCCC1)CCCc1cccc(c1)O3 [Compound 10],% Inhibition (Example 13) @ 0.3 μM,[2],−9%
same,% Inhibition (Example 13) @ 1 μM,[2],5%
same,% Inhibition (Example 13) @ 3 μM,[2],7%
CC(C)[C@@H]1CCC(=O)Nc2ccc3ccc(cc3c2)Oc2ccc3c(c2)CN1C(N)=N3 [Compound 31],% Inhibition (Example 13) @ 0.3 μM,[2],14%
same,% Inhibition (Example 13) @ 1 μM,[2],16%
same,% Inhibition (Example 13) @ 3 μM,[2],−15%
NC1=Nc2cnc3cc2CN1C(C1CCCCC1)CCC(=O)N(C1CCC(C(=O)O)CC1)CCc1cccc(c1)O3 (stereo not drawn) [Compound 33],% Inhibition 0.3 μM,[1]; [4],15%
CC(C)[C@H]1CC(=O)N(C2CCCCC2)CCCc2cccc(c2)Oc2ccc3c(c2)CN1C(N)=N3 [Compound 5],% Inhibition (Example 13) @ 0.3 μM,[2],3%
same,% Inhibition (Example 13) @ 1 μM,[2],−6%
same,% Inhibition (Example 13) @ 3 μM,[2],43%
Nc1nc2ccc3cc2cc1C(C1CCCCC1)CCCC(=O)N(C1CCCCC1)CCc1cccc(c1)O3 (stereo not drawn) [Compound 40],inhibition at 1 µM,[1]; [4],13%
NC1=Nc2cnc3cc2CN1[C@H](C1CCCCC1)CCC(=O)N([C@H]1CC[C@@H](O)CC1)CCc1cccc(c1)O3 [Compound 34],inhibition at 0.3 µM,[1]; [4],86%
same,IC50,[1]; [5],210 nM
CC(C)[C@@H]1CCC(=O)N(C2CCOCC2)CCc2cccc(c2)Oc2ccc3c(c2)CN1C(N)=N3 [Compound 20],Ki,[3]; [6],22 nM
NC1=Nc2ccc3cc2CN1CCCNC(=O)CCc1cccc(c1)O3 [Compound 7],% Inhibition (Example 13) @ 0.3 μM,[2]; 0.3 µM,39%
same,% Inhibition (Example 13) @ 1 μM,[2]; 1 µM,36%
same,% Inhibition (Example 13) @ 3 μM,[2]; 3 µM,37%
CC(C)[C@@H]1CCC(=O)N(CCCO)CCc2cccc(c2)Oc2ccc3c(c2)CN1C(N)=N3 [Compound 25],inhibition at 0.3 µM,[2],65%
same,inhibition at 1 µM,[2],99%
same,inhibition at 3 µM,[2],111%
same,Ki,[3],44 nM
NC1=Nc2cnc3cc2CN1[C@H](C1CCCCC1)CCC(=O)N(C1CCCCC1)CCc1cccc(c1)O3 [Compound 32],IC50,[1],55 nM
same,inhibition at 0.3 µM,[1]; [4],99%
NC1=Nc2ccc3cc2CN1CCCCC(=O)N(C1CCCCC1)CCCc1cccc(c1)O3 [Compound 4],inhibition at 0.3 µM,[2],100%
same,inhibition at 1 µM,[2],115%
same,inhibition at 3 µM,[2],120%
same,Ki,[3],44 nM
NC1=Nc2ccc3cc2CN1[C@@H](C1CCCCC1)CCCN(C1CCCCC1)CCCc1cccc(c1)O3 [Compound 19],inhibition at 0.3 µM,[2],35%
same,inhibition at 1 µM,[2],55%
same,inhibition at 3 µM,[2],93%
same,Ki,[3],400 nM
NC1=Nc2ccc3cc2CN1CCN(C1CCCCC1)C(=O)CCc1cccc(c1)O3 [Compound 15],% Inhibition (Example 13) @ 0.3 μM,[2],−36%
same,% Inhibition (Example 13) @ 1 μM,[2],−31%
same,% Inhibition (Example 13) @ 3 μM,[2],10%
NC1=Nc2ccc3cc2CN1CCCNC(=O)CCc1cccc(c1)O3 [Compound 9],% Inhibition (Example 13) @ 0.3 μM,[2]; 0.3 µM,−26%
same,% Inhibition (Example 13) @ 1 μM,[2]; 1 µM,−21%
same,% Inhibition (Example 13) @ 3 μM,[2]; 3 µM,1%
NC1=Nc2cnc3cc2CN1[C@H](C1CCCCC1)CCC(=O)N(C1CCCC1)CCc1cccc(c1)O3 [Compound 37],inhibition at 0.3 µM,[1]; [4],100%
same,IC50,[1]; [5],70 nM
NC1=Nc2ccc3cc2CN1CCCNC(=O)Cc1cccc(c1)O3 [Compound 12],% Inhibition (Example 13) @ 0.3 μM,[2],−18%
same,% Inhibition (Example 13) @ 1 μM,[2],−0.4%
same,% Inhibition (Example 13) @ 3 μM,[2],11%
NC1=Nc2ccc3cc2CN1CCNC(=O)CCC/C=C/c1ccccc1-3 [Compound 11],inhibition at 0.3 µM,[2],-12%
same,inhibition at 1 µM,[2],23%
same,inhibition at 3 µM,[2],65%
CCOC(=O)C1CCC(N2CCc3cccc(c3)Oc3ccc4c(c3)CN(C(N)=N4)[C@H](C(C)C)CCC2=O)CC1 (stereo partly drawn) [Compound 28],% Inhibition (Example 13) @ 0.3 μM,[2],4%
same,% Inhibition (Example 13) @ 1 μM,[2],59%
same,% Inhibition (Example 13) @ 3 μM,[2],110%
